Measured values: patent US20230303549A1, “SUBSTITUTED HETEROARYLOXYPYRIDINES, THE SALTS THEREOF AND THEIR USE AS HERBICIDAL AGENTS” (Bayer Aktiengesellschaft, priority 2020, published 2023)

Columns and labels:
Format in all cases: in vivo
Stellaria media (STEME) [1] = experiment: Post-emergence herbicidal efficacy at 320 g/ha, greenhouse pot test; conditions: visual rating vs untreated control after about 3 weeks
Procedure: (§1) Seeds of mono- and dicotyledonous weed plants were placed in plastic pots in sandy loam soil (doubly sown with in each case one species of mono- or dicotyledonous weed plants per pot), covered with soil and cultivated in a greenhouse under controlled growth conditions. 2 to 3 weeks after sowing, the test plants were treated at the one-leaf stage. The compounds of the invention, formulated in the form of wettable powders (WP) or as emulsion concentrates (EC), were applied onto the green parts of the plants as aqueous suspension or emulsion with addition of 0.5% additive at a water application rate of 600 liters per hectare (converted). After the test plants had been kept in the greenhouse under optimum growth conditions for about 3 weeks, the activity of the preparations was rated visually in comparison to untreated controls. For example, 100% activity=the plants have died, 0% activity=like control plants. Tables […] 11 below show the effects of selected compounds of the general formula (I) according to Table 1 on various harmful plants and an application rate corresponding to 320 g/ha, which were obtained by the experimental procedure mentioned above.

Veronica persica (VERPE) [2] = experiment: as above; conditions: 320 g/ha, visual rating vs untreated control after about 3 weeks
Procedure: as §1

[3] = test system: Abutilon theophrasti (ABUTH); experiment: as above; conditions: visual rating vs untreated control after about 3 weeks
Procedure: as §1

Poa annua (POAAN) = experiment: Pre-emergence herbicide efficacy at 320 g/ha, greenhouse pot test; conditions: visual scoring vs untreated control after about 3 weeks
Text: (§2) Seeds of mono- and dicotyledonous weed plants were placed in plastic pots in sandy loam soil (doubly sown with in each case one species of mono- or dicotyledonous weed plants per pot) and covered with soil. The compounds of the invention, formulated in the form of wettable powders (WP) or as emulsion concentrates (EC), were then applied onto the surface of the covering soil as aqueous suspension or emulsion with addition of 0.5% additive at a water application rate of 600 liters per hectare (converted). After the treatment, the pots were placed in a greenhouse and kept under good growth conditions for the test plants. After about 3 weeks, the effect of the preparations was scored visually in comparison with untreated controls as percentages. For example, 100% activity=the plants have died, 0% activity=like control plants. Tables C1 to C12 below show the effects of selected compounds of the general formula (I) according to Table 1 on various harmful plants and an application rate corresponding to 320 g/ha, which were obtained by the experimental procedure mentioned above.

[4] = test system: Amaranthus retroflexus (AMARE); experiment: as above; conditions: visual scoring vs untreated control after about 3 weeks
Text: as §2

Stellaria media (STEME) [5] = experiment: as above; conditions: visual scoring vs untreated control after about 3 weeks
Text: as §2

Setaria viridis (SETVI) = experiment: as above; conditions: visual scoring vs untreated control after about 3 weeks
Text: as §2

[6] = test system: Echinochloa crus-galli (ECHCG); experiment: as above; conditions: visual scoring vs untreated control after about 3 weeks
Text: as §2

[7] = test system: Abutilon theophrasti (ABUTH); experiment: as above; conditions: visual scoring vs untreated control after about 3 weeks
Text: as §2

[8] = test system: Matricaria inodora (MATIN); experiment: as above; conditions: visual scoring vs untreated control after about 3 weeks
Text: as §2

Bassia scoparia (KCHSC) = experiment: as above; conditions: dosage 1280 g/ha in Table C6, visual scoring after about 3 weeks
Text: as §2

Veronica persica (VERPE) [9] = experiment: as above; conditions: visual scoring vs untreated control after about 3 weeks
Text: as §2

[10] = test system: Amaranthus retroflexus (AMARE); experiment: Post-emergence herbicidal efficacy at 320 g/ha, greenhouse pot test; conditions: visual rating vs untreated control after about 3 weeks
Procedure: as §1

Row | Compound | Post-emergence action against Stellaria media (STEME) (Stellaria media (STEME) [1]) | Post-emergence efficacy against Veronica persica (VERPE) (Veronica persica (VERPE) [2]) | Post-emergence efficacy against Abutilon theophrasti (ABUTH) [3] | Pre-emergence efficacy against Poa annua (POAAN) (Poa annua (POAAN)) | Pre-emergence efficacy against Amaranthus retroflexus (AMARE) [4] | Pre-emergence efficacy against Stellaria media (STEME) (Stellaria media (STEME) [5]) | Pre-emergence efficacy against Setaria viridis (SETVI) (Setaria viridis (SETVI)) | Pre-emergence efficacy against Echinochloa crus-galli (ECHCG) [6] | Pre-emergence efficacy against Abutilon theophrasti (ABUTH) [7] | Pre-emergence efficacy against Matricaria inodora (MATIN) [8] | Pre-emergence efficacy against Bassia scoparia (KCHSC) (Bassia scoparia (KCHSC)) | Pre-emergence efficacy against Veronica persica (VERPE) (Veronica persica (VERPE) [9]) | Post-emergence efficacy against Amaranthus retroflexus (AMARE) [10]
1 | Cc1cc(C)c(-c2cc(C3(C)CC3)no2)c(Oc2ncc(F)cn2)n1 [Example I-299] | 90% | 90% | 90% | 90% | 100% | 100% | 90% | 90% | 90% |  |  |  | 
2 | Cc1cc(C)c(-c2cc(C3(C)CC3)no2)c(Oc2ncc(Cl)cn2)n1 [Example I-297] |  | 90% |  |  | 90% | 100% |  |  | 90% | 100% |  |  | 
3 | Cc1ccc(-c2cc(C(F)F)on2)c(Oc2ncc(Cl)cn2)n1 [Example I-12] |  |  |  | 100% | 100% | 90% |  |  | 90% |  |  |  | 
4 | Cc1cc(C)c(-n2cccn2)c(Oc2ncc(F)cn2)n1 [Example I-244] |  |  |  |  |  |  |  |  |  |  | 90% | 90% | 
5 | Cc1cc(C)c(-n2cc(Br)cn2)c(Oc2ncc(Cl)cn2)n1 [Example I-278] | 90% | 90% |  |  |  | 100% |  | 100% | 100% |  | 100% | 100% | 100%
6 | Cc1cc(C)c(-n2cccn2)c(Oc2ncc(Cl)cn2)n1 [Example I-245] |  |  |  |  | 100% | 100% |  |  | 90% | 90% | 100% |  | 
7 | Cc1cc(C)c(-c2cc(C3(C)CC3)no2)c(Oc2ncc(Br)cn2)n1 [Example I-298] | 90% | 90% | 90% |  | 90% | 100% |  |  |  | 90% |  |  | 
8 | Cc1cc(C)c(-c2cc(C(F)F)no2)c(Oc2ncc(Cl)cc2C#N)n1 [Example I-290] |  | 90% |  |  |  |  |  |  |  |  |  |  | 100%
9 | Cc1cc(C)c(-c2cc(CC3CC3)no2)c(Oc2ncc(F)cn2)n1 [Example I-200] | 90% | 90% |  | 90% | 100% | 100% |  | 90% | 90% | 90% |  |  | 90%
10 | Cc1ccc(-c2cc(C(F)F)on2)c(Oc2ncc(F)cn2)n1 [Example I-13] |  |  |  |  |  |  |  |  |  |  |  |  | 90%
